Data set [1] is described as follows: Ocular distribution of Compound 1 after oral administration. It counts as in vivo. The text has this: As an orally administered small molecule, Compound 1 is advantageous over therapeutic agents being investigated for the use in treating GA, which rely in intravitreal administration. In this regard, oral CFD inhibitors, such as Compound 1, not only provide GA patients with a more convenient and accessible option for therapy, but also help reduce the patient and caregiver burden for by lowering the need for clinical visits and minimize the risk of ocular injection-related adverse events. […] Given the overall pharmaceutical profile of Compound 1, the present disclosure provides that a treatment regimen with Compound 1 leads to better patient compliance and improved clinical outcomes in patients with GA.

Data set [2] in a line: MAD study (tolerability, liver enzymes). It counts as in vivo, human. The conditions noted are these: high doses, after dosing was ceased. The protocol:
The 100 mg BID, 200 mg BID, and 400 mg QD dose regimens proposed for this study are based on simulation results. […] Based on data from the literature, retina and choroid RPE on the retinal side are more likely to be the target eye tissues. However, the choroid RPE on the capillary bed side cannot be completely ruled out as a potential target. The proposed doses allow for the assessment of two different dosing intervals, i.e., BID vs QD. The 400 mg QD dosing regimen, if shown to be safe and effective, would be more convenient for patients and encourage better compliance relative to bid dosing. An up to 2-fold uncertainty of model prediction on PK and APH inhibition in the target eye tissues is anticipated as the physiological eye parameters in humans were translated from Dutch-Belted rabbits. […] The elevations were transient and not considered of clinical significance. […] A dose taper was instituted in subsequent studies as a risk mitigation measure.

Regarding `CC(=O)c1nn(CC(=O)N2C[C@H](F)C[C@H]2C(=O)Nc2cccc(Br)n2)c2ccc(-c3cnc(C)nc3)cc12` [Compound 1, (2S,4R)-1-(2-(3-acetyl-5-(2-methylpyrimidin-5-yl)-1H-indazol-1-yl)acetyl)-N-(6-bromopyridin-2-yl)-4-fluoropyrrolidine-2-carboxamide], in data set [1], the blood-retina barrier crossing entry is listed as “cross the blood-retina barrier”. The “retention in ocular tissues after oral administration” value in data set [1] (choroid and retinal pigment epithelium (RPE)) is “selective retention in ocular tissues containing melanin”. Further, in data set [2], the ALT elevations result is “ALT elevations were observed at high doses in 2 subjects after dosing was ceased”.

For the origin of these results see US20240252497A1, “USE OF COMPLEMENT FACTOR D INHIBITOR FOR TREATMENT OF GEOGRAPHIC ATROPHY SECONDARY TO AGE-RELATED MACULAR DEGENERATION” (Alexion Pharmaceuticals, Inc., priority 2021, published 2024).
